Legend:
[1] = tested on: MCF-7 cells; assay: Breast cancer cell viability assay (MCF7, CellTiter-Glo); details: for IC50: read-out: MCF7 Viability Assay: IC50, 5 days' compound exposure; for MCF7 Viability Assay: % Viability relative to Fulvestrant: 5 days' compound exposure
[2] = target: ER-α (Homo sapiens (Human), UniProt P03372); assay: Breast cancer cell ER-α In-Cell Western assay (SP1); format: cell-based; details: MCF7 cells, 4 hours post compound addition
Experimental: MCF7 cells were trypsinized and washed twice in Phenol Red Free RPMI containing 5% Charcoal Dextran Stripped serum with 20 mM HEPES and NEAA, then adjusted to a concentration of 200,000 cells per mL with the same medium. Next, 16 μL of the cell suspension (3200 cells) was added to each well of a poly-D-lysine coated 384 well plate, and the cells were incubated at 37° C. over 4 days to allow the cells to adhere and grow. […] At 4 hours post compound addition, the cells were fixed by adding 16 μL of 30% formalin to the 32 μL of cells and compound (10% formalin final concentration) for 20 minutes. Cells were then washed twice with PBS Tween 0.1% and then permeabilized in PBS 0.1% Triton (50 μl/well) for additional 15 minutes. The PBS 0.1% triton was decanted, and the cells were washed: LI-COR blocking buffer (50 μL/well) was added, the plate was spun at 3000 rpm, and then the blocking buffer was decanted. Additional LI-COR blocking buffer (50 μL/well) was added, and the cells were incubated overnight at 4° C. The blocking buffer was decanted, and the cells were incubated overnight at 4° C. with SP1 (Thermo Scientific) anti-ER rabbit monoclonal antibody diluted 1:1000 in LI-COR blocking buffer/0.1% Tween-20. Wells which were treated with blocking buffer with Tween but no antibody were used as a background control. Wells were washed twice with PBS Tween 0.1% to remove free SP1 antibodies, and the cells were incubated at room temp for 60-90 minutes in LI-COR goat anti-rabbit IRDye™ 800CW (1:1000) and DRAQ5 DNA dye (1:10000 of 5 mM stock solution) diluted in LI-COR blocking buffer containing 0.1% Tween-20 and 0.01% SDS. Cells were then washed with 0.1% Tween-20/PBS three times. Plates were scanned on a LI-COR Odyssey infrared imaging system. Integrated intensities in the 800 nm channel and 700 nm channel were measured to determine levels of ER-α and DNA respectively. Percent ER levels were determined as follows: (Integrated intensity 800 nm sample/integrated intensity 700 nm sample)/(Integrated intensity 800 nm untreated cells/integrated intensity 700 nm untreated cells)×100=% ER-α levels.

[3] = tested on: tamoxifen resistant MCF-7 tumors; assay: Breast cancer model: xenograft assay (MCF-7 derivative, tamoxifen resistant); format: in vivo; details: female nu/nu mice
Experimental: Female nu/nu mice (with supplemental 17-β Estradiol pellets; 0.72 mg; 60 day slow release) bearing MCF-7 tumors (mean tumor volume 200 mm^3) were treated with Tamoxifen (citrate) by oral gavage. Tumor volume (length×width^2/2) and body weight were monitored twice weekly. Following a significant anti-tumor response in which tumor volume remained static, evident tumor growth was first observed at approximately 100 days of treatment. At 120 days of treatment, tamoxifen dose was increased. Rapidly growing tumors were deemed tamoxifen resistant and selected for in vivo passage into new host animals. Tumor Fragments (˜100 mm^3/animal) from the tamoxifen resistant tumors were subcutaneously implanted into the right flank of female nu/nu mice (with 17-β Estradiol pellets (0.72 mg; 60 day slow release)). Passaged tumors were maintained under constant Tamoxifen selection, and Tumor volume (length×width^2/2) was monitored weekly. When tumor volume reached ˜150-250 mm^3, animals were randomized into treatment groups (mean tumor volume 200 mm^3) and tamoxifen treatment was terminated (except for a tamoxifen control arm). Animals were treated with Vehicle or Compound daily for 4 weeks. Tumor volume and body weight were monitored twice weekly for the duration of the study. At the conclusion of the treatment period; plasma and tumor samples were taken for pharmacokinetic and pharmacodynamic analyses, respectively.

Chain of ER-α (P03372 whole entry): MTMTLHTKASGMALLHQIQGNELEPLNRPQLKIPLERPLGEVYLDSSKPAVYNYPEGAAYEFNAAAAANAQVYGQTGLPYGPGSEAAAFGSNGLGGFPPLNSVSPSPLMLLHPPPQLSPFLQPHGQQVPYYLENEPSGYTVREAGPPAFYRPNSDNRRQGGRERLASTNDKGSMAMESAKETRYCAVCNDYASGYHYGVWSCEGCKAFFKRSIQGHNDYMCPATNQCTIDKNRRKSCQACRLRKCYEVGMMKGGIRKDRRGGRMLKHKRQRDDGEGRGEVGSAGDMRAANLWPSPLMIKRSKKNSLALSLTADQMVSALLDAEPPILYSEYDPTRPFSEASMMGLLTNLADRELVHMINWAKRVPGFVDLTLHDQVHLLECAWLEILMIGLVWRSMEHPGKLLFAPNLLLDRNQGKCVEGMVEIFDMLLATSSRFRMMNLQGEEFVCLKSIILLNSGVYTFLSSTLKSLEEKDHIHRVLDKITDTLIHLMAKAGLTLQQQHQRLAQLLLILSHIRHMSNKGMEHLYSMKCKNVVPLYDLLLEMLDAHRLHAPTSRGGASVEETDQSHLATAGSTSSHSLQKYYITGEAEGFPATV

| SMILES | IC50 [1] [pM] | ER-α In-Cell Western Assay (SP1): % ER-α remaining relative to Fulvestrant [2] [%] | MCF7 Viability Assay: % Viability relative to Fulvestrant [1] [%] | IC50 [2] [pM] | Number of Tumors Smaller at t = 27 days than at Start of study (t = 0 days) ([3]; 10 mpk oral dose each day) | Number of Tumors Smaller at t = 27 days than at Start of study (t = 0 days) ([3]; 30 mpk oral dose each day) | Number of Tumors Smaller at t = 27 days than at Start of study (t = 0 days) ([3]; 100 mpk oral dose each day) |
| --- | --- | --- | --- | --- | --- | --- | --- |
| CC1=C(c2cccc(O)c2)C(c2ccc(OCCN3CC(CF)C3)cc2)Oc2ccc(O)cc21 (racemic) [Example 1, (±)-2-(4-(2-(3-(Fluoromethyl)azetidin-1-yl)ethoxy)phenyl)-3-(3-hydroxyphenyl)-4-methyl-2H-chromen-6-ol] | 210 | – | – | – | – | – | – |
| CC1=C(c2cccc(O)c2)C(c2ccc(OCCN3CC(C)C3)cc2)Oc2ccc(O)cc21 (racemic) [Example 4, 3-(3-Hydroxyphenyl)-4-methyl-2-(4-(2-(3-methylazetidin-1-yl)ethoxy)phenyl)-2H-chromen-6-ol] | – | 14 | 13 | – | – | – | – |
| CC1=C(c2cccc(O)c2)C(c2ccc(OCCN3CCC3)cc2)Oc2ccc(O)cc21 (centres unmarked) [2-(4-(2-(azetidin-1-yl)ethoxy)phenyl)-3-(3-hydroxyphenyl)-4-methyl-2H-chromen-6-ol] | – | 24 | 25 | – | – | – | – |
| CC1=C(c2cccc(O)c2)C(c2ccc(OC[C@H](C)N3CC[C@@H](F)C3)cc2)Oc2ccc(O)cc21 (stereo partly drawn) [2-(4-((S)-2-((R)-3-fluoropyrrolidin-1-yl)propoxy)phenyl)-3-(3-hydroxyphenyl)-4-methyl-2H-chromen-6-ol] | – | 8 | 16 | – | – | – | – |
| CC1=C(c2cccc(O)c2)C(c2ccc(OC[C@H](C)N3CCC3)cc2)Oc2ccc(O)cc21 (stereo partly drawn) [2-(4-((S)-2-(azetidin-1-yl)propoxy)phenyl)-3-(3-hydroxyphenyl)-4-methyl-2H-chromen-6-ol] | – | 33 | 30 | – | – | – | – |
| CC1=C(c2cccc(O)c2)[C@H](c2ccc(OC[C@H](C)N3CC[C@@H](C)C3)cc2)Oc2ccc(O)cc21 [(S)-3-(3-Hydroxyphenyl)-4-methyl-2-(4-((S)-2-((R)-3-methylpyrrolidin-1-yl)propoxy)phenyl)-2H-chromen-6-ol] | 130 | – | 8 | 110 | 0/8 | 1/8 | 1/8 |
| CC1=C(c2cccc(O)c2)[C@@H](c2ccc(OCCN3CC(CF)C3)cc2)Oc2ccc(O)cc21 [Example 2, (R)-2-(4-(2-(3-(Fluoromethyl)azetidin-1-yl)ethoxy)phenyl)-3-(3-hydroxyphenyl)-4-methyl-2H-chromen-6-ol] | 4300 | – | – | – | – | – | – |
| CC1=C(c2cccc(O)c2)[C@H](c2ccc(OCCN3CC(CF)C3)cc2)Oc2ccc(O)cc21 [Example 3, (S)-2-(4-(2-(3-(fluoromethyl)azetidin-1-yl)ethoxy)phenyl)-3-(3-hydroxyphenyl)-4-methyl-2H-chromen-6-ol] | 70 | – | – | – | 0/5 | 2/8 | 5/8 |

Source: patent publication US10227334B2, “Estrogen receptor modulators and uses thereof” (Genentech, Inc., priority 2013, dated 2019)
